The supplement of paper PMC10307832

Experiments:
Test in all cases: relative viability (nuclei count vs DMSO), 5 days (fraction); higher = more cells survive
[1] = test system: ABC-1
Summary of the method: (§1)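 Nuclei were stained with Hoechst during a one-step fixation (final 0.05% Triton X-100, 1% formaldehyde, 1 ug/ml Hoechst) carried out 5 days after dosing, then counted on 4× images. The cells, lung cancer lines in 1536-well plates, had been dosed by pin tool the day after seeding with one drug alone or a fixed anchor-drug dose plus five library-drug doses (not always all listed) in √10 steps. Relative viability is the nuclei count in treated wells divided by that in vehicle wells, and each value is the median of duplicate plates.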

[2] = test system: COR-L23
Summary of the method: as §1

[3] = test system: ChaGo-K-1
Summary of the method: as §1

[4] = test system: EMC-BAC-2
Summary of the method: as §1

[5] = test system: HARA
Summary of the method: as §1

[6] = test system: HCC-15
Summary of the method: as §1

[7] = test system: HCC-366
Summary of the method: as §1

[8] = test system: HCC-78
Summary of the method: as §1

[9] = test system: HOP-62
Summary of the method: as §1

[10] = test system: LC-2-ad
Summary of the method: as §1

[11] = test system: NCI-H1395
Summary of the method: as §1

For `O=c1cc(N2CCOCC2)oc2c(-c3cccc4c3sc3ccccc34)cccc12` + Cc1nc(Nc2ncc(C(=O)Nc3c(C)cccc3Cl)s2)cc(N2CCN(CCO)CC2)n1 [Dasatinib] (partner 0.075 µM), the relative viability ([1]; first compound 0.01 µM) was 0.569, the relative viability ([1]; first compound 0.03162 µM) was 0.561 and the relative viability ([1]; first compound 0.1 µM) was 0.582. The relative viability ([1]; first compound 0.3162 µM) was 0.488, the relative viability ([1]; first compound 1 µM) was 0.567 and the relative viability ([2]; first compound 0.01 µM) was 0.534. It also gave a relative viability ([2]; first compound 0.03162 µM) of 0.496, a relative viability ([2]; first compound 0.1 µM) of 0.566 and a relative viability ([2]; first compound 0.3162 µM) of 0.446. The relative viability ([2]; first compound 1 µM) was 0.512, the relative viability ([3]; first compound 0.01 µM) was 0.402 and the relative viability ([3]; first compound 0.03162 µM) was 0.641. For the same compound, the relative viability ([3]; first compound 0.1 µM) was 0.517, the relative viability ([3]; first compound 0.3162 µM) was 0.609 and the relative viability ([3]; first compound 1 µM) was 0.73. For the same compound, the relative viability ([4]; first compound 0.01 µM) was 0.366, the relative viability ([4]; first compound 0.03162 µM) was 0.32 and the relative viability ([4]; first compound 0.1 µM) was 0.342. For the same compound, the relative viability ([4]; first compound 0.3162 µM) was 0.371, the relative viability ([4]; first compound 1 µM) was 0.344 and the relative viability ([5]; first compound 0.01 µM) was 0.208. It also gave a relative viability ([5]; first compound 0.03162 µM) of 0.282, a relative viability ([5]; first compound 0.1 µM) of 0.276 and a relative viability ([5]; first compound 0.3162 µM) of 0.268. For the same compound, the relative viability ([5]; first compound 1 µM) was 0.243, the relative viability ([6]; first compound 0.01 µM) was 0.63 and the relative viability ([6]; first compound 0.03162 µM) was 0.675. For the same compound, the relative viability ([6]; first compound 0.1 µM) was 0.697, the relative viability ([6]; first compound 0.3162 µM) was 0.577 and the relative viability ([6]; first compound 1 µM) was 0.602. For the same compound, the relative viability ([7]; first compound 0.01 µM) was 0.672, the relative viability ([7]; first compound 0.03162 µM) was 0.69 and the relative viability ([7]; first compound 0.1 µM) was 0.725. For the same compound, the relative viability ([7]; first compound 0.3162 µM) was 0.601, the relative viability ([7]; first compound 1 µM) was 0.618 and the relative viability ([8]; first compound 0.01 µM) was 0.353. It also gave a relative viability ([8]; first compound 0.03162 µM) of 0.363, a relative viability ([8]; first compound 0.1 µM) of 0.275 and a relative viability ([8]; first compound 0.3162 µM) of 0.292. It also gave a relative viability ([8]; first compound 1 µM) of 0.32, a relative viability ([9]; first compound 0.01 µM) of 0.676 and a relative viability ([9]; first compound 0.03162 µM) of 0.676. The relative viability ([9]; first compound 0.1 µM) was 0.672, the relative viability ([9]; first compound 0.3162 µM) was 0.639 and the relative viability ([9]; first compound 1 µM) was 0.616. For the same compound, the relative viability ([10]; first compound 0.01 µM) was 0.536, the relative viability ([10]; first compound 0.03162 µM) was 0.688 and the relative viability ([10]; first compound 0.1 µM) was 0.775. The relative viability ([10]; first compound 0.3162 µM) was 0.578, the relative viability ([10]; first compound 1 µM) was 0.527 and the relative viability ([11]; first compound 0.01 µM) was 0.422. For the same compound, the relative viability ([11]; first compound 0.03162 µM) was 0.393, the relative viability ([11]; first compound 0.1 µM) was 0.407 and the relative viability ([11]; first compound 0.3162 µM) was 0.367.
